How the values were obtained:
[1] = test system: Blumeria graminis f. sp. hordei; test: Test Example D: Powdery mildew on barley; settings: Powdery mildew on barley; for Test D control value class: class of control value; for Test D control value: control value class
Phytophthora infestans = test: whole plant or invertebrate; assay type: in vivo; settings: Late blight on tomato; for Test F control value class: class of control value; for Test F control value: control value class
[2] = test system: Colletotrichum orbiculare; test: Test Example H: Anthracnose on cucumber; settings: 250 ppm spray; for Test H control value class: Anthracnose on cucumber (Sagami Hanjiro), 2.5 ml/pot, assessed 6 to 10 days after inoculation; for Test H control value: Anthracnose on cucumber, 6 to 10 days after inoculation
Protocol: Seeds of a test plant (cucumber variety: Sagami Hanjiro) were planted and cultivated until the first leaf appeared. In the test, the inventive compounds were dissolved into dimethyl sulfoxide-methanol mixture solution (volume ratio: 9/1), and the resultant solutions were diluted with well water to a concentration of 250 ppm to obtain the drug solutions. The drug solutions were sprayed to the test plant (2.5 ml/pot). After the drug solutions dried, a conidial suspension (2-4×10^5 conidia/ml) of Colletotrichum orbiculare was inoculated to the plant by spraying. After the inoculation, the plant was kept in a mist chamber at room temperature of 20 to 23° C. for about 24 hours to promote the onset of disease. The degrees of disease development were investigated 6 to 10 days after the inoculation, and the effectiveness of the drug solutions was evaluated.
In Test Examples described above, the degrees of disease development were evaluated in increments of 0.05 from 0 (as no incidence of disease) to 3 (as the degree of disease development in an untreated plant group). Further, control values were calculated using the following equation based on the degree of disease development.
n=Degree of disease development in each treated group
In the table, H: more than 50% control value, L: 50% or less control value, and nt: not tested.

Botrytis cinerea = test: Test Example B: Gray mold on tomato; settings: Gray mold on tomato; for Test B control value class: class of control value; for Test B control value: control value class
Alternaia brassicicola = test: Test Example C: Alternaria sooty spot on cabbage; assay type: in vivo; settings: Alternaria sooty spot on cabbage; for Test C control value class: class of control value; for Test C control value: control value class
Excerpt: Seeds of a test plant (cabbage variety: Shikidori) were planted and cultivated until the cotyledons extended.
<Control Value> Control value=100{1−(n/3)}

Puccinia recondita = test: Test Example E: Brown rust on wheat; assay type: in vivo; settings: Brown rust on wheat; for Test E control value class: class of control value; for Test E control value: control value class
Magnaporthe grisea = test: whole plant or invertebrate; assay type: in vivo; settings: Blast on rice; for Test A control value class: class of control value; for Test A control value: control value class
Plasmopara viticola = test: Test Example G: Downy mildew on vine; settings: 250 ppm spray; for Test G control value class: Downy mildew on vine (Neomuscat), 2.5 ml/pot, assessed 7 to 10 days after inoculation; for Test G control value: Downy mildew on vine, 7 to 10 days after inoculation

Row | Compound | Test D control value class [1] | Test F control value class (Phytophthora infestans) | Test H control value class [2] | Test B control value class (Botrytis cinerea) | Test C control value class (Alternaia brassicicola) | Test E control value class (Puccinia recondita) | Test A control value class (Magnaporthe grisea) | Test G control value class (Plasmopara viticola) | Test D control value [1] | Test F control value (Phytophthora infestans) | Test H control value [2] | Test B control value (Botrytis cinerea) | Test C control value (Alternaia brassicicola) | Test E control value (Puccinia recondita) | Test A control value (Magnaporthe grisea) | Test G control value (Plasmopara viticola)
1 | CCOC(C)(C)c1cc(Cl)c(=O)n(CC)c1-c1c(F)cc(F)cc1F [compound 161] | H (more than 50% control value) | L (50% or less control value) | H (more than 50% control value) | H (more than 50% control value) | H (more than 50% control value) | H (more than 50% control value) | H (more than 50% control value) | H (more than 50% control value) |  |  |  |  |  |  |  | 
2 | CCOC(C)(C)c1cc(Cl)c(=O)n(CC)c1-c1c(F)cc(OC)cc1F [compound 162] | H (more than 50% control value) | L (50% or less control value) | H (more than 50% control value) | H (more than 50% control value) | H (more than 50% control value) | H (more than 50% control value) | H (more than 50% control value) | H (more than 50% control value) |  |  |  |  |  |  |  | 
3 | CCn1c(-c2c(F)cc(F)cc2F)c(CC(C)(C)C)cc(Cl)c1=O [compound 169] | H (more than 50% control value) | H (more than 50% control value) | H (more than 50% control value) | H (more than 50% control value) | H (more than 50% control value) | H (more than 50% control value) | H (more than 50% control value) | H (more than 50% control value) |  |  |  |  |  |  |  | 
4 | CCn1c(-c2c(F)cc(F)cc2F)c(C(=O)C(C)(C)C)cc(Cl)c1=O [compound 173] | H (more than 50% control value) | L (50% or less control value) | H (more than 50% control value) | H (more than 50% control value) | H (more than 50% control value) | H (more than 50% control value) | L (50% or less control value) | L (50% or less control value) |  |  |  |  |  |  |  | 
5 | CCn1c(-c2ccc(Br)cc2)c(CC(C)C)ccc1=O [compound 175] | H (more than 50% control value) | L (50% or less control value) | L (50% or less control value) | H (more than 50% control value) | L (50% or less control value) | H (more than 50% control value) | L (50% or less control value) | L (50% or less control value) |  |  |  |  |  |  |  | 
6 | CCn1c(-c2ccc(F)cc2Cl)c(C2CCCCC2)ccc1=O [compound 176] | H (more than 50% control value) | H (more than 50% control value) | L (50% or less control value) | H (more than 50% control value) | H (more than 50% control value) | H (more than 50% control value) | H (more than 50% control value) | L (50% or less control value) |  |  |  |  |  |  |  | 
7 | CCn1c(-c2ccc(Br)cc2)c(CC(C)C)cc(Cl)c1=O [compound 177] | L (50% or less control value) | L (50% or less control value) | L (50% or less control value) | H (more than 50% control value) | H (more than 50% control value) | H (more than 50% control value) | L (50% or less control value) | L (50% or less control value) |  |  |  |  |  |  |  | 
8 | CCn1c(-c2ccc(Br)cc2)c(CC(C)C)cc(Br)c1=O [compound 178] | L (50% or less control value) | L (50% or less control value) | L (50% or less control value) | H (more than 50% control value) | H (more than 50% control value) | H (more than 50% control value) | L (50% or less control value) | L (50% or less control value) |  |  |  |  |  |  |  | 
9 | CCn1c(-c2c(F)cc(OC)cc2F)c(C(=O)C(C)(C)C)cc(Cl)c1=O [compound 179] | H (more than 50% control value) | L (50% or less control value) | H (more than 50% control value) | H (more than 50% control value) | H (more than 50% control value) | H (more than 50% control value) | H (more than 50% control value) | L (50% or less control value) |  |  |  |  |  |  |  | 
10 | CCn1c(-c2ccc(F)cc2Cl)c(C2CCCCC2)cc(Cl)c1=O [compound 181] | H (more than 50% control value) | L (50% or less control value) | H (more than 50% control value) | H (more than 50% control value) | H (more than 50% control value) | H (more than 50% control value) | H (more than 50% control value) | H (more than 50% control value) |  |  |  |  |  |  |  | 
11 | CCn1c(-c2ccc(F)cc2Cl)c(C2CCCCC2)cc(Br)c1=O [compound 182] | H (more than 50% control value) | L (50% or less control value) | L (50% or less control value) | H (more than 50% control value) | H (more than 50% control value) | H (more than 50% control value) | H (more than 50% control value) | L (50% or less control value) |  |  |  |  |  |  |  | 
12 | CCc1ccc(=O)n(CC)c1-c1ccc(F)cc1Cl [compound 185] |  |  |  |  |  |  |  |  | H (more than 50% control value) | L (50% or less control value) | L (50% or less control value) | H (more than 50% control value) | H (more than 50% control value) | H (more than 50% control value) | L (50% or less control value) | L (50% or less control value)
13 | CCc1cc(Br)c(=O)n(CC)c1-c1ccc(F)cc1Cl [compound 186] |  |  |  |  |  |  |  |  | H (more than 50% control value) | L (50% or less control value) | H (more than 50% control value) | H (more than 50% control value) | H (more than 50% control value) | H (more than 50% control value) | H (more than 50% control value) | H (more than 50% control value)
14 | CCc1cc(Cl)c(=O)n(CC)c1-c1ccc(F)cc1Cl [compound 189] |  |  |  |  |  |  |  |  | H (more than 50% control value) | L (50% or less control value) | H (more than 50% control value) | H (more than 50% control value) | H (more than 50% control value) | H (more than 50% control value) | H (more than 50% control value) | H (more than 50% control value)
15 | CCCc1ccc(=O)n(CC)c1-c1ccc(F)cc1Cl [compound 190] |  |  |  |  |  |  |  |  | H (more than 50% control value) | L (50% or less control value) | L (50% or less control value) | H (more than 50% control value) | H (more than 50% control value) | H (more than 50% control value) | H (more than 50% control value) | H (more than 50% control value)
16 | CCCc1cc(Cl)c(=O)n(CC)c1-c1ccc(F)cc1Cl [compound 191] |  |  |  |  |  |  |  |  | H (more than 50% control value) | L (50% or less control value) | H (more than 50% control value) | H (more than 50% control value) | H (more than 50% control value) | H (more than 50% control value) | H (more than 50% control value) | H (more than 50% control value)

Source: patent US11147272B2, “Pyridone compounds and agricultural and horticultural fungicides comprising the same as active ingredients” (MITSUI CHEMICALS AGRO, INC., priority 2017, dated 2021)
